# From patent US20240294586A1, “TENASCIN-C AUTOANTIGENIC EPITOPES IN RHEUMATOID ARTHRITIS” (Benaroya Research Institute at Virginia Mason, priority 2020, published 2024)
# Where no end group is shown, it is not given here. [ ]: non-standard residue; d: D form. Cit = NC(=O)NCCC[C@H](N)C(=O)O
# Columns and labels:
# [1] = tested on: memory CD4+ T cells; test: Ex vivo detection of peptide-reactive T cells by multiplex HLA class II tetramers; format: cell-based, human; settings: peripheral blood, RA n=9, HC n=7
# Method: Recombinant HLA-DRB1*04:01 protein was produced by the BRI Tetramer Core (Benaroya Research Institute, Seattle, WA) as previously described (Novak et al. 1999 J Clin Inv.104:R63). Soluble HLA-DRB1*04:01 monomer was purified from insect cell culture supernatants and biotinylated at a sequence-specific site using biotin ligase (Avidity) prior to dialysis into phosphate storage buffer. The biotinylated monomer was loaded with 0.2 mg/ml of peptide by incubating at 37° C. for 72 hours in the presence of 2.5 mg/ml n-octyl-β-D-glucopyranoside and 1 mM Pefabloc SC (Sigma-Aldrich). […]
# Ex vivo tetramer staining and enrichment was accomplished using previously published protocols (Rims et al. 2019 Arthritis Rheumatol. 71:518; Uchtenhagen et al. 2016 Nat Comm 7:12614). […] Samples were run on a BD LSRII flow cytometer, and data was analyzed using FlowJo software version 10. The frequency (F) of epitope-specific T cells per million memory CD4+ T cells was calculated as follows: F=(1,000,000×tetramer-positive events from enriched tube)/(100×number of memory CD4+ T cells from the “Pre” fraction). […] These served as the parent populations from which one of the four tetramer positive T-cell populations were then gated on and analyzed for surface receptor expression. […]
# [2] = tested on: antibodies in sera from RA and HC subjects; test: ELISA for detection of serum antibodies against peptides; format: binding, human; settings: for antibody reactivity relative to threshold for positivity: Autoantibody Cohort 2
# Method: ELISAs were used to detect antibodies against citrullinated peptides in sera from patients in Autoantibody Cohorts 1 and 2 (FIG. 6). Peptides used in the assay were synthesized by either GenScript or Pepceutical and are described in FIG. 12. The ELISAs were conducted as previously described (Riedl et al. 2001 Int J Colorectal Dis.16:285; Quarona et al. 2013 Cytometry Part B, Clinical cytometry 84:207). In brief, 96-well Nunc Maxisorp plates were coated with 10 μg/ml peptide in PBS, blocked with 2% BSA and incubated with sera diluted 1:100. Bound antibodies were detected with an HRP-conjugated anti-human IgG Fc monoclonal antibody (6043HRP, Stratech). A standard curve of positive sera was used to calculate relative antibody titers in arbitrary units (AU) for each sample. The CCP2 ELISA for Autoantibody Cohort 1 was performed as by the manufacturer's instruction (FCCP600, Axis-Shield). Cross-reactivity was analyzed in human sera that were reactive to both cTNC56 or cTNC17 and cTNC5. Sera were diluted 1:100, incubated with 1, 10 and 100 μg/ml of peptides for 2 hours, centrifuged at 10,000 g for 10 min and the supernatant added to peptide-coated plates for analysis by ELISA as described above. Positivity was defined by the cut-off of the 98% percentile of healthy control samples from Autoantibody Cohort 1.
# [3] = target: HLA-DRB1*04:01 (Homo sapiens, UniProt P01903+P01911, A100K/A169T/F76Y/I96L/K127E/L162R/M171V/N62H/P40V/Q125Y/R42H/S133A/S149N/S66Y/V115G/V209L/W38E); test: Peptide competition binding assay to HLA-DRB1*04:01; settings: competition with 0.01 μM biotinylated influenza HA306-318
# [4] = tested on: peripheral blood mononuclear cells (PBMC) from HLA-DRB1*04:01 positive subjects; test: In vitro expansion of peptide-specific T cells and HLA class II tetramer staining; format: cell-based, human; settings: two weeks of in vitro expansion, 10 μg/ml peptide
# Method: Recombinant HLA-DRB1*04:01 protein was produced by the BRI Tetramer Core (Benaroya Research Institute, Seattle, WA) as previously described (Novak et al. 1999 J Clin Inv.104:R63). Soluble HLA-DRB1*04:01 monomer was purified from insect cell culture supernatants and biotinylated at a sequence-specific site using biotin ligase (Avidity) prior to dialysis into phosphate storage buffer. The biotinylated monomer was loaded with 0.2 mg/ml of peptide by incubating at 37° C. for 72 hours in the presence of 2.5 mg/ml n-octyl-β-D-glucopyranoside and 1 mM Pefabloc SC (Sigma-Aldrich). Peptide loaded monomers were conjugated into tetramers using fluorescently labeled streptavidin (Invitrogen) for 6-18 hours at room temperature at a molar ratio of 8:1.
# Cryopreserved PBMCs from RA and healthy subjects were cultured at 5×10^6 cells/well in a 48 well plate in RPMI-1640+10% HPS with 10 μg/ml of peptide. IL-2 (Novartis) was added at 325 IU/ml on day 6. On day 14, cells were stained for expression of tetramer-PE, CD25 APC (BD) and CD4 FITC (BioLegend), and then characterized by immunocytofluorimetry on a FACSCanto™ (BD). The data were analyzed by FlowJo software version 10.
# [5] = tested on: CCP-reactive antibody (ACPA) pools from plasma and synovial fluid; test: Extracellular matrix peptide microarray with polyclonal CCP-pools; format: binding, human; settings: ACPA pools at 15 μg/ml
# Method: The custom-made microarray was performed as previously described (Steen et al. 2019 Arthritis Rheumatol. 71:196). In brief, 16-aa long peptides that covered all arginine residues of 1,610 extracellular matrix proteins and RA related proteins were synthesized in situ (Roche NimbleGen). For tenascin C, there were a total of 217 peptides including both native and citrullinated variants of each peptide synthesized. Samples tested for reactivity against TNC derived peptides included synovial and plasma ACPA pools containing CCP-reactive antibodies from 26 and 38 RA patients, respectively (Ossipova et al. 2014 Arthritis Res Ther. 16:R167; Sahlström et al. 2020 Arthritis Rheumatol. 72:1643) Paired synovial fluid and serum samples from one RA patient taken at two time points 10 years apart were also screened. ACPA pools were run at a concentration of 15 μg/ml, whereas synovial fluid and plasma or serum samples were diluted 1/100 and tested for citrulline reactivity using a NimbleGen MS200 Scanner (Roche NimbleGen). A peptide signal intensity variation (spot size) of pixels was used as a basis for calculating the median fluorescence intensities. The cutoff for positive signals was defined as 5 times the fluorescence intensity of the 98th percentile of values for a set of monoclonal antibodies without citrulline reactivity. […]
# [6] = target: T1, HLA-DRB1*04:01 (human); test: peptide competition assay against biotinylated HA306-318
# T1 construct: MHC class II molecule; also called HLA-DR protein; recombinant HLA-DRB1*04:01 protein
molecule,measurement,setting,value
"MP 97-116: influenza peptide used as positive control (VKLYRKLKREITFHGAKEIS; Matrix protein 1; UniProt P03485 97-116, looked up, fragment) [reference compound]",frequency of peptide-specific memory CD4+ T cells in RA compared to HC subjects,[1],did not differ between RA and HC subjects
arg-TNC17: corresponding unmodified arginine-containing peptide of cit-TNC17 (VSLISRRGDMSSNPA),antibody reactivity relative to threshold for positivity,[2],below the threshold for positivity in almost all subjects
same,binding to HLA-DRB1*04:01,[3],did not
arg-TNC22: corresponding unmodified arginine-containing peptide of cit-TNC22 (FDRYRLNYSLPTGQW),immunogenicity: epitope-specific T cell expansion by HLA Class II tetramer staining,[4],ability to elicit T cell responses
same,binding to HLA-DRB1*04:01,[3],bound
arg-TNC45: corresponding unmodified arginine-containing peptide of cit-TNC45 (PDGFRLSWTADEGVF),immunogenicity: epitope-specific T cell expansion by HLA Class II tetramer staining,[4],ability to elicit T cell responses
same,binding to HLA-DRB1*04:01,[3],bound
arg-TNC56: corresponding unmodified arginine-containing peptide of cit-TNC56 (QGQYELRVDLRDHGE),antibody reactivity relative to threshold for positivity,[2],below the threshold for positivity in almost all subjects
same,binding to HLA-DRB1*04:01,[3],did not
"cit-TNC5: previously published citrullinated peptide from the C-terminal FBG domain of TNC, used as positive control (CEHSIQFAEMKL[Cit]PSNF[Cit]NLEG[Cit][Cit]KRC; not fully specified; cysteine pairing not given here) [reference compound]",RA sera with antibodies to the peptide,"[2]; Autoantibody Cohort 1, HLA-DRB1*04:01 and CCP positive RA n=17",47%
same,antibody titers / reactivity in RA sera,"[2]; Autoantibody Cohort 1, sera diluted 1:100",highest
same,antibody reactivity in plasma CCP-pool,[5],could be verified
same,antibody reactivity in synovial fluid derived antibody pools,[5],strong positive signal
VSLISRRGDMSSNPA (not fully specified) [arg-TNC17],binding result,[6],no binding
"QGQYELRVDLRDHGE (not fully specified, See note of arg-TNC17) [arg-TNC56]",binding result,[6],no binding
